Measurements from patent publication US12697331B2, “Methods of use of T-type calcium channel modulators” (PRAXIS PRECISION MEDICINES, INC., priority 2020, dated 2026).
Structures can show the parent of a compound that is named as a salt.

Tests used:
hCav3.2 = biological target: T1, hCav3.2 (Homo sapiens, UniProt O95180); assay: PatchXpress patch clamp, tonic block (resting state, -120 mV); format: cell-based
T1 construct: expressed in transfected cells; host or cells: HEK-293 (cultured under G418 selection)
Procedure: (§1) The voltage dependence of calcium channel isoforms was determined by comparing the activity of resting (Tonic Block) and half-inactivated (Voltage Dependent Block) voltages across various concentrations of Formula (II). First, HEK-293 cells containing hCav3.1, hCav3.2, or hCav3.3 calcium channel isoforms were prepared by seeding at 2×10^6 cells per flask in culture for 2 days; the cells were then harvested at about 6×10^6 cells. Harvested cells were washed once in DPBS for approximately 30 minutes, and 1 mL of 1× (0.05%) Trypsin-EDTA was added, swirled, and allowed to sit on the cells for approximately 4 minutes. 10 mL of warmed DMEM high glucose media supplemented with 10% fetal bovine serum, 2 mM sodium pyruvate, 10 mM HEPES, and 400 μg/mL G418 was added, and the cells were triturated until a single cell suspension was […]. Cells were placed in a 250 mL centrifuge tube with 30 mL warmed media and gently rocked at 28° C. for approximately 1 hour. Cell aliquots of 5 mLs (1×10^6 cells) were then centrifuged at 100× for 2 minutes, and supernatant was removed. Next, 100 μl of external recording solution was added to the remaining cell pellet and triturated 20 times to achieve a single cell suspension.
(§2) Immediately prior to assay, Formula (II) was diluted with DMSO to 300× the designated final concentration. All studies were performed using the Molecular Devices PatchXpress automated patch clamp platform at room temperature.
(§3) To determine the hCav3.1, hCav3.2, and hCav3.3 peak current from a resting, closed state (tonic block), currents were evokes by depolarizing pulses to −25 mV (10 ms) from −120 mV (a non-inactivated holding potential) at a frequency of 0.1 Hz. Peak current was defined as the peak inward current during Epoch 1 with no leak subtraction applied. Current stability was monitored, and the potency of each compound was determined using concentration response curves.
(§4) Pharmacology was measured during Epoch 1. Percent inhibition was calculated as: 100*((([Step 2+Step 5]/2)−Step 3)/(Step 2+Step 5/2)), wherein Step 2 is the peak current measured at baseline, Step 5 is the current measured during the wash period, and Step 3 is the peak current measured during application of the compound. The average of the final 3 consecutive currents in each experimental procedure was used for all calculations. The concentration response curve was fit with a Hill equation to derive IC50, slope, minimum response, and maximum response fitting parameters.

hCav3.1 = biological target: T2, hCav3.1 (Homo sapiens, UniProt O43497); assay: as above; format: cell-based
T2 construct: expressed in transfected cells; host or cells: HEK-293 (cultured under G418 selection)
Procedure: as §1, §2, §3, §4

[1] = tested on: sigma band EEG power during NREM sleep; assay: 24-hour EEG/PSG: sigma band EEG power during NREM sleep; format: in vivo, human
Procedure: The effects of multiple doses of a wider dose range (Part A: 5, 10, 20 mg; Part B: 60, 80, 100, 120 mg) on sigma band EEG power during NREM sleep were also evaluated as part of the protocol described in Example 11, above. 24-hour EEG/PSG recordings were performed the day before dosing (baseline day) and after dosing on Days 4, 8, and 12 (for Part A) or Days 10, 17, 24, and 31 (for Part B). Part B also included placebo-treated participants for statistical comparisons.

gamma band EEG power = assay: qEEG: gamma band EEG power (eyes open / eyes closed); format: in vivo, human; settings: Part B, beginning at 60 mg and continuing through to 120 mg
Source text: It appears a maximal effect in gamma reduction was not achieved.
The eyes open (EO) and eyes closed (EC) gamma absolute power for each individual was also estimated at specific time points across the study days.

[2] = Food effect: high-fat, high-calorie meal, single 20 mg dose; format: in vivo, human; settings: single 20 mg oral dose
Procedure: The effect of a high-fat, high-calorie meal on the pharmacokinetics of a compound of formula (II) was evaluated in an open-label, sequential fashion following a single 20 mg dose of formulation 5 in participants who had previously received a 20 mg dose of formulation 5 under fasted conditions.

T2 sequence (O43497 whole entry): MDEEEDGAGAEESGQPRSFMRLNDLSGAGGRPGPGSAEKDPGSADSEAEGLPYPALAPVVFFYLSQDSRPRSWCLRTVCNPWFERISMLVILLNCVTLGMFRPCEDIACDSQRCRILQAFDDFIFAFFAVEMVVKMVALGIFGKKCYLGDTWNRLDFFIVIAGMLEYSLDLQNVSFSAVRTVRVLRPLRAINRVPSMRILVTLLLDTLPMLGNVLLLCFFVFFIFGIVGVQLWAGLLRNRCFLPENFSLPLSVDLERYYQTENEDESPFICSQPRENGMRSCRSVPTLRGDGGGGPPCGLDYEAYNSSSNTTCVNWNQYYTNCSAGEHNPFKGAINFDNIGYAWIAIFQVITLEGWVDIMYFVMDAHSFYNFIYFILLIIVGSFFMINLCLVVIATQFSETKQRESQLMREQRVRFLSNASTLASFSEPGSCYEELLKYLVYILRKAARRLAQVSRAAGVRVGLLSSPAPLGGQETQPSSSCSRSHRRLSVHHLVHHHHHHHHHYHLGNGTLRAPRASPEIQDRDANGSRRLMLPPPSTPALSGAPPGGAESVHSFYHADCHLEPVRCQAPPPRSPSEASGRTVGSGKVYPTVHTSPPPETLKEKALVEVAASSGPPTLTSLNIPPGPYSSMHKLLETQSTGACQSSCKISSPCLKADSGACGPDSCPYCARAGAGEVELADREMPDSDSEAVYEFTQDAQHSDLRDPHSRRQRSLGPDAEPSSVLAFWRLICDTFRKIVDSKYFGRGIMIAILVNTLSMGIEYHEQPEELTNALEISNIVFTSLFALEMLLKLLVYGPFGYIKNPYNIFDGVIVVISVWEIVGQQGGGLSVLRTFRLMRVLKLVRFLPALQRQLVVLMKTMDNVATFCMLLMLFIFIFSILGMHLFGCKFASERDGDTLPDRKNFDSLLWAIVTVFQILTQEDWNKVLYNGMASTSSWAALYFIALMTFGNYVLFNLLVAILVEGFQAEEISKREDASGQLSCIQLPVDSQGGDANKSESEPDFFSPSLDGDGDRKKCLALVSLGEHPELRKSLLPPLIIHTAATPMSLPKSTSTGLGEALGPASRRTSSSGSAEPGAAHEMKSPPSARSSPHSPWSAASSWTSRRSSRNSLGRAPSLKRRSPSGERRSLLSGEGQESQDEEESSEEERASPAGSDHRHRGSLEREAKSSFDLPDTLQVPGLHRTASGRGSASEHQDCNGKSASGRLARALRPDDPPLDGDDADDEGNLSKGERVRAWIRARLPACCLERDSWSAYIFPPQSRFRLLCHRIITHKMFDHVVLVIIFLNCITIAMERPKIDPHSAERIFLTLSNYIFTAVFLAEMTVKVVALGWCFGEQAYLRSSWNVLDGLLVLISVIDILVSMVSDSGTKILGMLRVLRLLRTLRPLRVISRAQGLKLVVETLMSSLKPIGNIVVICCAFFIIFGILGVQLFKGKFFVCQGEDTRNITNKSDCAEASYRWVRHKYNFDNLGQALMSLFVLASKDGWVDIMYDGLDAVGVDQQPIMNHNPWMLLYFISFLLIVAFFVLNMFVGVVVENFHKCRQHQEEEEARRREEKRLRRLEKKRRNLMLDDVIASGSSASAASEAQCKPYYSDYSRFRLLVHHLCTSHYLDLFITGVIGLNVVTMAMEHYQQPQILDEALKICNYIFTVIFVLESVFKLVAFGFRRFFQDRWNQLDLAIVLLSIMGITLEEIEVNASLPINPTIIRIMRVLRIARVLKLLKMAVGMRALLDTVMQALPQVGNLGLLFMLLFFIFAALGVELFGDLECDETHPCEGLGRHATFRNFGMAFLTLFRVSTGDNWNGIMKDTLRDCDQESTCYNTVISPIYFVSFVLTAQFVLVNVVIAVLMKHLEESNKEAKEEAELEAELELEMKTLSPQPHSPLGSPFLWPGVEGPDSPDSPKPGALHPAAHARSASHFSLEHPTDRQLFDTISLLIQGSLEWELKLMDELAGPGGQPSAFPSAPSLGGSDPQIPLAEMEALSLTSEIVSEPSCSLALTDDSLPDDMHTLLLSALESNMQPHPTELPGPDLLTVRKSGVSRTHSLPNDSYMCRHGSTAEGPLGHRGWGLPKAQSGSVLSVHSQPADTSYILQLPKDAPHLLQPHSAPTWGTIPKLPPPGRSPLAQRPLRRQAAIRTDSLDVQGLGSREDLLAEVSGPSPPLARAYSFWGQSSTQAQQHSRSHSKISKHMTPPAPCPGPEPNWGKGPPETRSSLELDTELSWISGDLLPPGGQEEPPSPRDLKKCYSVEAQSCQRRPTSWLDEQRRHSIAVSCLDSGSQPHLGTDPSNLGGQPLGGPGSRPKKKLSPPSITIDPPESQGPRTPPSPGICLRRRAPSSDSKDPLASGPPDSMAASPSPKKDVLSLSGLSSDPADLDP
T1 sequence (O95180 whole entry): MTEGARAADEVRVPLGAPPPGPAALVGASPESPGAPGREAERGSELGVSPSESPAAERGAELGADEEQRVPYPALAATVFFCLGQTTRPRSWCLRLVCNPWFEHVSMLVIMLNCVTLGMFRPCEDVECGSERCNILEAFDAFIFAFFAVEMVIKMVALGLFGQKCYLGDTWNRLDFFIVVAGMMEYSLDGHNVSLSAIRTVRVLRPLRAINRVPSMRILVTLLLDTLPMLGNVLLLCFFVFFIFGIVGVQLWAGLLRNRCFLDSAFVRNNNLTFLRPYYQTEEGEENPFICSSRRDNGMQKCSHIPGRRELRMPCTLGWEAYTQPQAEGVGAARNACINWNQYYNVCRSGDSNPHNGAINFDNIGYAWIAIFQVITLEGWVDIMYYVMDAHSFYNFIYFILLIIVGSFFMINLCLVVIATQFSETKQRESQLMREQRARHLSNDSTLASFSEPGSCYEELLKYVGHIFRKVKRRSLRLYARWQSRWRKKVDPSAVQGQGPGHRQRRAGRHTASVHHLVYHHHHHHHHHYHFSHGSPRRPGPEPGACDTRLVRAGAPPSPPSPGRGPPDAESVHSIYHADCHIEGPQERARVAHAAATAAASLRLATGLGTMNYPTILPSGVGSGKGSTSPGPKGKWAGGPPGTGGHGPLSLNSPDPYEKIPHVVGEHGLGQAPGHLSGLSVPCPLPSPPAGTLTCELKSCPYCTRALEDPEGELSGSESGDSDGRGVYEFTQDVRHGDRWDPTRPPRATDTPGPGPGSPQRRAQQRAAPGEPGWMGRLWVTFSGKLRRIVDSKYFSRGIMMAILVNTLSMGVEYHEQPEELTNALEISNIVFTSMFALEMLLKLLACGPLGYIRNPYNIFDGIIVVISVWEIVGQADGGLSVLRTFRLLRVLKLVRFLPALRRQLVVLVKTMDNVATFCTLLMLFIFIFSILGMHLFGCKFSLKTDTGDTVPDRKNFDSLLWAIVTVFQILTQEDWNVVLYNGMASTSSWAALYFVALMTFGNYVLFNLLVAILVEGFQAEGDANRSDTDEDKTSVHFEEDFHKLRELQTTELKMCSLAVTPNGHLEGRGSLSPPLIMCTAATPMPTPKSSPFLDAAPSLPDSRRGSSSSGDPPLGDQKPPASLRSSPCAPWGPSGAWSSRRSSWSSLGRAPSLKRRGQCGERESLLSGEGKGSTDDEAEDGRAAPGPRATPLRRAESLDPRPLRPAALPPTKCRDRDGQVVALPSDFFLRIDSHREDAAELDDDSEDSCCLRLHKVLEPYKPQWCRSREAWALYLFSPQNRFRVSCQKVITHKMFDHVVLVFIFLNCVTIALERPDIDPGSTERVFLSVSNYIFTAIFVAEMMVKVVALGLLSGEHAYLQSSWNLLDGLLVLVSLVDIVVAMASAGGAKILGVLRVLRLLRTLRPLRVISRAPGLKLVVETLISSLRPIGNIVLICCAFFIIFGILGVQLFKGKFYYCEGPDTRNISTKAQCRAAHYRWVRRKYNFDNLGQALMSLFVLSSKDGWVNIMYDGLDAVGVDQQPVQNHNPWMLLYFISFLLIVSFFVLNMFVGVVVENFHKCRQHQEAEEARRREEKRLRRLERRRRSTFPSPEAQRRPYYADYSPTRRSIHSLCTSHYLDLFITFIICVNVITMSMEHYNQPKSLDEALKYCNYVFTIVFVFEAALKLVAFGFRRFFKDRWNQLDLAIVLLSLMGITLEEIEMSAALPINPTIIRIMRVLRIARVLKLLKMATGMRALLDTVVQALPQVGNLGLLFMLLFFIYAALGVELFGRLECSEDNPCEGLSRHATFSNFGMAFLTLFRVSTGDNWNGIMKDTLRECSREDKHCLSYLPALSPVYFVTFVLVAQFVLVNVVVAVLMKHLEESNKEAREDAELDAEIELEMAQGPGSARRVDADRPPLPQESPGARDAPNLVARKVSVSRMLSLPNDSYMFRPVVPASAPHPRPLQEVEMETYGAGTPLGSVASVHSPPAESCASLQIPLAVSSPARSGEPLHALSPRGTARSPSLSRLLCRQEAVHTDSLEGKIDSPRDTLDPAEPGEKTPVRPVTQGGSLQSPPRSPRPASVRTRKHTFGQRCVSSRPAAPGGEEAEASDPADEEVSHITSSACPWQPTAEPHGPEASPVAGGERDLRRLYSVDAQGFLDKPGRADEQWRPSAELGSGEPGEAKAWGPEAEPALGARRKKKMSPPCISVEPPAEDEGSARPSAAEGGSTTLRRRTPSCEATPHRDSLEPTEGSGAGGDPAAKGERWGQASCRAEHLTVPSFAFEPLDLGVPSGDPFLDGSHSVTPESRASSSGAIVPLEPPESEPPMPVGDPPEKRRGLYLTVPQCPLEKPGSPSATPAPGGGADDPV

CC(C)(C)NC(=O)CN1CCC(CNC(=O)c2cc(F)cc(Cl)c2)CC1 [compound of formula (II), N-((1-(2-(tert-butylamino)-2-oxoethyl)piperidin-4-yl)methyl)-3-chloro-5-fluorobenzamide hydrochloride]
Inhibition of peak current, tonic block, Mean (hCav3.2; 0.09 μm): 12.6 (4) %
Inhibition of peak current, tonic block, Mean (hCav3.2; 0.27 μm): 37.1 (6) %
Inhibition of peak current, tonic block, Mean (hCav3.2; 0.91 μm): 55.1 (13) %
Inhibition of peak current, tonic block, Mean (hCav3.2; 2.74 μm): 76.2%
Inhibition of peak current, tonic block, Mean (hCav3.2; 9.13 μm): 89.7%
Inhibition of peak current, tonic block, Mean (hCav3.2; 27.40 μm): 96.9%
Inhibition of peak current, tonic block, Mean (hCav3.2; 91.33 μm): 98.2%
Inhibition of peak current, tonic block, Mean (hCav3.1; 0.09 μm): 8.8 (7) %
Inhibition of peak current, tonic block, Mean (hCav3.1; 0.27 μm): 29.4 (11) %
Inhibition of peak current, tonic block, Mean (hCav3.1; 0.91 μm): 50.2 (9) %
Inhibition of peak current, tonic block, Mean (hCav3.1; 2.74 μm): 67.5 (10) %
Inhibition of peak current, tonic block, Mean (hCav3.1; 9.13 μm): 76.6 (9) %
Inhibition of peak current, tonic block, Mean (hCav3.1; 27.40 μm): 89.5 (4) %
Effect on NREM sigma band as compared to a placebo control ([1]; 20 mg tablet and 40 mg tablet (FIG. 12)): decrease
NREM sigma power, Difference Ratio Formula (II) v. Placebo ([1]; Day 10 (60 mg), Part B): 0.550
Dose at which the decrease in sigma band EEG power plateaued ([1]; Part B, relative to placebo-treated subjects): 80 mg
Effect on gamma band EEG power (gamma band EEG power): dose-related reduction
AUClast Ratio (fed/fasted) [2]: 1.14
AUC∞ Ratio (fed/fasted) [2]: 1.15
Cmax Ratio (fed/fasted) [2]: 1.49
